Measured values taken from patent publication US20240059710A1, “KRAS G12D Inhibitors” (Jacobio Pharmaceuticals Co., Ltd., priority 2020, published 2024).
Read-outs that look alike come from different tables or passages of the source.

Tests used:
[1] = target: T1, GppNp-loaded HIS-KRAS (G12D, aa 1-169) / cRAF RBD (Homo sapiens, UniProt P01116, G12D); assay: GTP-KRAS and cRAF interaction assay; format: binding; conditions: HTRF, 2 hours at 25° C.
T1 construct: GppNp-loaded HIS-KRAS (G12D, aa 1-169)
T1 sequence (P01116 1-169 isoform P01116-2 G12D): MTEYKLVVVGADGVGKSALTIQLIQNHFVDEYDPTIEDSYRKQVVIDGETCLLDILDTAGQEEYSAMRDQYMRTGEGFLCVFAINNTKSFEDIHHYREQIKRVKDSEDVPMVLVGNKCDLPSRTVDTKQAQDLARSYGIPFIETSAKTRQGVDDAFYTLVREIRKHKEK
Method: 2. GTP-KRAS and cRAF Interaction Assay
GppNp-loaded HIS-KRAS (G12D, aa 1-169) was pre-incubated with a compound in the presence of 200 µM GTP in a 384-well plate (Greiner) for 15 min, then cRAF RBD (GST tag, aa 50-132, CreativeBioMart), MAb Anti GST-d2 (Cisbio) and MAb Anti 6HIS-Tb cryptate Gold (Cisbio) were added to the assay wells (Final concentration: 2.0 nM GppNp-loaded HIS-KRAS (G12D), 100 μM GTP, 35 nM cRAF RBD, 1 μg/mL MAb Anti GST-d2, 52.5 ng/mL MAb Anti 6HIS-Tb cryptate Gold) and incubated for 2 hours at 25° C. Wells containing same percent of DMSO served as vehicle control, and wells without KRAS served as low control. HTRF signals were read on Tecan Spark multimode microplate reader and HTRF ratios were calculated under manufacturer's instructions. The percent of activation of compounds treated wells were normalized between vehicle control and low control (% Activation=(HTRF ratioCompound treated−HTRF ratioLow control)/(HTRF ratioVehicle control−HTRF ratioLow control)*100). Then the data were analyzed either by fitting a 4-parameter logistic model or by Excel to calculate IC50 values.

[2] = target: T2, GDP-loaded HIS-KRAS (G12D, aa 1-169) (Homo sapiens, UniProt P01116, G12D); assay: SOS1 catalyzed nucleotide exchange assay; format: biochemical; conditions: SOS1 ExD, TR-FRET, 4 hours at 25° C.
T2 construct: GDP-loaded HIS-KRAS (G12D, aa 1-169)
T2 sequence (P01116 1-169 isoform P01116-2 G12D): as above
Method: 1. SOS1 Catalyzed Nucleotide Exchange Assay
GDP-loaded HIS-KRAS (G12D, aa 1-169) was pre-incubated with a compound in the presence of 10 nM GDP in a 384-well plate (Greiner) for 15 min, then purified SOS1 ExD (Flag tag, aa 564-1049), BODIPY™ FL GTP (Invitrogen) and MAb (monoclonal antibody) Anti 6HIS-Tb cryptate Gold (Cisbio) were added to the assay wells (Final concentration: 1.5 nM GDP-loaded HIS-KRAS (G12D), 5 nM GDP, 0.5 μM SOS1 ExD, 80 nM BODIPY™ FL GTP, 52.5 ng/mL MAb Anti 6HIS-Tb cryptate Gold) and incubated for 4 hours at 25° C. Wells containing same percent of DMSO served as vehicle control, and wells without KRAS served as low control. TR-FRET signals were read on Tecan Spark multimode microplate reader. The parameters were F486: Excitation 340 nm, Emission 486 nm, Lag time 100 μs, Integration time 200 μs; F515: Excitation 340 nm, Emission 515 nm, Lag time 100 μs, Integration time 200 μs. TR-FRET ratios for each individual wells were calculated by equation: TR-FRET ratio=(Signal F515/Signal F486)*10000. The percent of activation of compounds treated wells were normalized between vehicle control and low control (% Activation=(TR-FRET ratioCompound treated−TR-FRET ratioLow control)/(TR-FRET ratioVehicle control−TR-FRET ratioLow control)*100%). Then the data were analyzed either by fitting a 4-parameter logistic model or by Excel to calculate IC50 values.

[3] = test system: AGS; assay: Cell growth inhibition assay (AGS); format: cell-based; conditions: 6 days incubation, CellTiter-Glo
Method: (§1) 4. Cell Growth Inhibition Assay
AGS cultured in F12K medium (Gibco) containing 10% fetal bovine serum (Gibco). Cells in culture medium were plated in 96-well plates at a concentration of 500 cells/well ([…]) and allowed to attach overnight.
(§2) The next day, compounds were diluted in culture medium and added to the plates. After 6 days incubation in a 37° C./5% CO2 cell incubator, the cell viability was detected by CellTiter-Glo® Luminescent Cell Viability Assay kit (Promega). Luminescent signals were read on Tecan Spark multimode microplate reader and analyzed using a 4-parameter logistic model to calculate IC50 values.

[4] = test system: AGS cells expressing KRAS G12D; assay: Phospho-ERK1/2(THR202/TYR204) HTRF assay; format: cell-based; conditions: 2 hours incubation, read-out: AGS p-ERK IC50
Method: AGS cells expressing KRAS G12D were cultured in F12K medium (Gibco) containing 10% fetal bovine serum (Gibco). The AGS cells in culture medium were seeded in 96-well plates at a concentration of 40,000 cells/well and then put in a 37° C./5% CO2 cell incubator to incubate overnight. The next day, culture medium was removed and the compound diluted in assay medium (F12K, 0.1% FBS) was added in each well. After 2 hours incubation in a 37° C./5% CO2 cell incubator, the assay medium in 96-well plates was removed, then 50 μL of 1× blocking reagent-supplemented lysis buffer (Cisbio) was added and the plates were incubated at 25° C. for 45 min with shaking. 10 μL of cell lysates from the 96-well plates were transferred to a 384-well plate (Greiner) containing 2.5 μL/well HTRF® pre-mixed antibodies (Cisbio 64AERPEH). Incubate 4 hours at 25° C. and then read HTRF signals on Tecan Spark multimode microplate reader. The data were analyzed using a 4-parameter logistic model to calculate IC50 values.

[5] = test system: AsPC-1; assay: Cell growth inhibition assay (AsPC-1); format: cell-based; conditions: AsPC-1, 6 days incubation, CellTiter-Glo
Method: as §1
AsPC-1 cultured in RPMI-1640 medium (Gibco) containing 10% fetal bovine serum (Gibco). Cells in culture medium were plated in 96-well plates at a concentration of 1000 cells/well ([…]) and allowed to attach overnight.
as §2

Compound	IC50 [1] [nM]	IC50 [2] [nM]	other results
C#Cc1cccc2cc(O)cc(-c3ccc4c(N5CCNCC5CC#N)nc(OCC5(CN6CCOCC6)CC5)nc4c3F)c12 (racemic) [Compound 134]	760	117	
C#Cc1cccc2cc(O)cc(-c3c(Cl)cc4c(N5CC6CCC(C5)N6)nc(OCC5(CN6CCOCC6)CC5)nc4c3F)c12 (single isomer, unassigned) [Compound 35A]		651	
C#Cc1cccc2cc(O)cc(-c3c(Cl)cc4c(N5CC6CCC(C5)N6)nc(OCC5(CN6CCOCC6)CC5)nc4c3F)c12 (single isomer, unassigned) [Compound 35B]	111	5.94	IC50 [3]: 13.4 nM; IC50 [4]: 6.2 nM; IC50 [5]: 39.5 nM
C#Cc1cccc2cc(O)cc(-c3c(C4CC4)cc4c(N5CC6CCC(C5)N6)nc(OCC5(CN6CCOCC6)CC5)nc4c3F)c12 (single isomer, unassigned) [Compound 38A]	8300	~1000	
C#Cc1cccc2cc(O)cc(-c3c(C4CC4)cc4c(N5CC6CCC(C5)N6)nc(OCC5(CN6CCOCC6)CC5)nc4c3F)c12 (single isomer, unassigned) [Compound 38B]	13.2	0.727	IC50 [3]: 10.5 nM; IC50 [4]: 12.4 nM; IC50 [5]: 158 nM
C#Cc1cccc2cc(O)cc(-c3c(C)cc4c(N5CC6CCC(C5)N6)nc(OCC5(CN6CCOCC6)CC5)nc4c3F)c12 (single isomer, unassigned) [Compound 40A]	1610	92.1	
C#Cc1cccc2cc(O)cc(-c3c(C)cc4c(N5CC6CCC(C5)N6)nc(OCC5(CN6CCOCC6)CC5)nc4c3F)c12 (single isomer, unassigned) [Compound 40B]	22.4	0.824	IC50 [3]: 4.92 nM; IC50 [4]: 1.97 nM; IC50 [5]: 45.8 nM
C#Cc1cccc2cc(O)cc(-c3c(F)cc4c(N5CC6CCC(C5)N6)nc(OCC5(CN6CCOCC6)CC5)nc4c3F)c12 (single isomer, unassigned) [Compound 41A]	417	120	
C#Cc1cccc2cc(O)cc(-c3c(SC(F)(F)F)cc4c(N5CC6CCC(C5)N6)nc(OCC5(CN6CCOCC6)CC5)nc4c3F)c12 (single isomer, unassigned) [Compound 59A]	> 1000	> 100	
C#Cc1cccc2cc(O)cc(-c3c(C#N)cc4c(N5CC6CCC(C5)N6)nc(OCC5(CN6CCOCC6)CC5)nc4c3F)c12 (single isomer, unassigned) [Compound 60A]	7690	766	
C#Cc1cccc2cc(O)cc(-c3c(Cl)cc4c(N5CC6CCC(C5)N6)nc(OC[C@@]56CCCN5C[C@H](F)C6)nc4c3F)c12 (single isomer, unassigned) [Compound 72A]	1480	85.9	
C#Cc1c(F)ccc2cc(O)cc(-c3c(Cl)cc4c(N5CC6CCC(C5)N6)nc(OCC5(CN6CCOCC6)CC5)nc4c3F)c12 (single isomer, unassigned) [Compound 99A]	2070	101	
C#Cc1c(F)ccc2cc(O)cc(-c3c(Cl)cc4c(N5CC6CCC(C5)N6)nc(OCC5(CN6CCOCC6)CC5)nc4c3F)c12 (single isomer, unassigned) [Compound 99B]	13.5	0.403	
C#Cc1cccc2cc(O)cc(-c3c(Cl)cc4c(N5CC6CCC(C5)N6)nc(OCC5(CN6CCOCC6)CC5)nc4c3Cl)c12 (single isomer, unassigned) [Compound 107A]	> 10000	783	
CCc1cccc2cc(O)cc(-c3c(Cl)cc4c(N5CC6CCC(C5)N6)nc(OCC5(CN6CCOCC6)CC5)nc4c3F)c12 [Compound 36]		32.8	
Oc1cc(-c2c(Cl)cc3c(N4CC5CCC(C4)N5)nc(OCC4(CN5CCOCC5)CC4)nc3c2F)c2c(Cl)cccc2c1 [Compound 37]		51.4	
CCc1cccc2cc(O)cc(-c3c(C4CC4)cc4c(N5CC6CCC(C5)N6)nc(OCC5(CN6CCOCC6)CC5)nc4c3F)c12 [Compound 39]	1410	322	
Oc1cc(-c2ccc3c(N4CC5CCC(C4)N5)nc(OCC4(CN5CCOCC5)CC4)nc3c2F)c2cccc(F)c2c1 [Compound 50]	1110	56.9	IC50 ([4]; Homo sapiens): 441 nM
Oc1cc(-c2c(Cl)cc3c(N4CC5CCC(C4)N5)nc(OCC4(CN5CCOCC5)CC4)nc3c2F)c2c(F)cccc2c1 [Compound 53]	853	57.1	IC50 ([4]; Homo sapiens): 99.6 nM
C#Cc1cccc2cc(O)cc(-c3ccc4c(N5C[C@H]6C[C@@H]5CN6)nc(OCC5(CN6CCOCC6)CC5)nc4c3F)c12 [Compound 54]	356	89.8	
C#Cc1cccc2cc(O)cc(-c3ccc4c(N5C6CNCC5C6)nc(OCC5(CN6CCOCC6)CC5)nc4c3F)c12 [Compound 56]	1910	146	
C#Cc1cccc2cc(O)cc(-c3ccc4c(N5CCNC[C@H]5C)nc(OC[C@@]56CCCN5C[C@H](F)C6)nc4c3F)c12 [Compound 69]	781	25.1	IC50 ([5]; Homo sapiens, ASPC1, 144 h): 1070 nM
C#Cc1cccc2cc(O)cc(-c3ccc4c(N5C6CCC5CNC6)nc(OC[C@@]56CCCN5C[C@H](F)C6)nc4c3F)c12 [Compound 70]	59.1	8.43	IC50 ([5]; Homo sapiens, ASPC1, 144 h): 140 nM
C#Cc1cccc2cc(O)cc(-c3ccc4c(N5CCNC[C@H]5C)nc(OCC5(CN6CCOCC6)CC5)nc4c3F)c12 [Compound 82]	> 1000		
Oc1cc(Cl)c(C(F)(F)F)c(-c2c(Cl)cc3c(N4CC5CCC(C4)N5)nc(OC[C@@]45CCCN4C[C@H](F)C5)nc3c2F)c1 [Compound 84]	325	35.4	
Oc1cc(Cl)c(C(F)(F)F)c(-c2ccc3c(N4CC5CCC(C4)N5)nc(OC[C@@]45CCCN4C[C@H](F)C5)nc3c2F)c1 [Compound 85]	2210	69.1	
Oc1cc(-c2c(Cl)cc3c(N4CC5CCC(C4)N5)nc(OCC4(CN5CCOCC5)CC4)nc3c2F)c2cccc(F)c2c1 [Compound 92]	3960	152	
C#Cc1c(F)ccc2cccc(-c3ccc4c(N5CC6CCC(C5)N6)nc(OCC5(CN6CCOCC6)CC5)nc4c3F)c12 [Compound 93]	2180	93.2	
C#Cc1cccc2cc(O)cc(-c3ccc4c(N5[C@H]6CN[C@H](C6)[C@H]5CC#N)nc(OCC5(CN6CCOCC6)CC5)nc4c3F)c12 [Compound 128]	519	> 100	
